Entries after “also recorded” stand apart in the source; their conditions may differ.
Assays:
[1] = tested on: CRY1 protein content; assay: CRY1 protein content by immunoblotting in H460 cells; assay type: cell-based, human; details: 9 h
Description: FIG. 13A-FIG. 13E illustrate characterization of NR0B1 ligands in Keap1-mutant NSCLC cells. […] Top: Heat map depicting changes in gene expression between H460 cells expressing shNRF2, shNR0B1 or a control (shGFP) and those treated with vehicle (DMSO), BPK-29 or BPK-9 (30 μM, 12 h). Expression for each condition was first normalized to appropriate controls (shGFP or DMSO) and then normalized by row. Bottom: Overlap between gene sets regulated in BPK-29-treated vs shNR0B1 H460 cells. Gene set enrichment analysis (GSEA) was applied to all genes that were differentially expressed between shNR0B1-H460 cells and shGFP-H460 cells or between H460 cells treated with BPK-29 or DMSO. Genes were ranked based on their FDR. […] Gene expression changes for CRY1, DEPDC1, and CPLX2 were determined by qPCR and data represents mean values+SD (n=4-10). […] Gene expression changes for Cry1, DEPDC1, and CPLX2 were determined by qPCR and data represents mean values+SD (n=4-6). […] Protein expression was analyzed by immunoblotting. […] Top: H460 cells were treated with cycloheximide (100 μg/mL) for the indicated time points and NR0B1 protein content assessed by immunoblotting. […] NR0B1 protein content was determined following cycloheximide treatment and data were fit into a one-phase exponential decay model. […]

[2] = tested on: KEAP1-mutant NSCLC cells; assay: Colony formation in soft agar, KEAP1-mutant NSCLC cells; assay type: cell-based, human; details: 5 μM
From the text: Based on its in situ activity (FIG. 6D and FIG. 12A, 12G) and selectivity (FIGS. 6A, 6B), BPK-29 was chosen for additional biological studies. […] Exogenous expression of […] the growth inhibition caused by BPK-29.

[3] = biological target: T1, C274 of NR0B1 (Homo sapiens, UniProt P51843); assay: Site of labeling by LC-MS/MS of FLAG-NR0B1 tryptic peptides; assay type: binding; details: BPK-26 100 μM, 3 h in lysate, BPK-29 50 μM, 3 h in HEK293T cells
T1 construct: expressed in transfected cells; host or cells: HEK-293T, transient, pRK5-based vector
Description: FIG. 11A-FIG. 11F illustrate a covalent ligand targeting Cys274 disrupts NR0B1 protein complexes. […] See also FIG. 5C. […] Top: Structures of screening hit BPK-28 and synthesized derivatives. […] The In vitro-binding assay was performed as described in FIG. 5B using compounds at a concentration of 50 μM. Bottom: Data represent mean values±SD normalized to DMSO control. n=4/group. […] Top: Compounds were tested as described in FIG. 5B. Bottom: Graph of concentration-dependent inhibition of NR0B1-SNW1 interactions by the indicated compounds. Percent binding was normalized to vehicle (DMSO). Data represent mean values±SD (n=2-5/group). FIG. 11D and FIG. 11E show NR0B1 ligands BPK-26 (D) and BPK-29 (E) covalently modify C274 in NR0B1. Lysate generate from HEK293T cell expressing FLAG-NR0B1 was treated with DMSO or BPK-26 (100 μM, 3 h, D). […] FLAG-immunoprecipitates were prepared from each lysate and subjected to proteolytic digestion, whereupon tryptic peptides harboring C274 were analyzed by LC-MS/MS. […] Immunoprecipitates were analyzed by in-gel fluorescence-scanning to assess BPK-29yne labeling or by immunoblot for FLAG-NR0B1. […] In a modified in vitro binding assay shown in FIG. 5B, HEK293T cells expressing HA-NR0B1-WT or an HA-NR0B1-C274V mutant were treated with DMSO or BPK-26 (20 μM, 3 h), after which lysates were and interaction with FLAG-SNW1 assessed. […]

T1 sequence (P51843 whole entry): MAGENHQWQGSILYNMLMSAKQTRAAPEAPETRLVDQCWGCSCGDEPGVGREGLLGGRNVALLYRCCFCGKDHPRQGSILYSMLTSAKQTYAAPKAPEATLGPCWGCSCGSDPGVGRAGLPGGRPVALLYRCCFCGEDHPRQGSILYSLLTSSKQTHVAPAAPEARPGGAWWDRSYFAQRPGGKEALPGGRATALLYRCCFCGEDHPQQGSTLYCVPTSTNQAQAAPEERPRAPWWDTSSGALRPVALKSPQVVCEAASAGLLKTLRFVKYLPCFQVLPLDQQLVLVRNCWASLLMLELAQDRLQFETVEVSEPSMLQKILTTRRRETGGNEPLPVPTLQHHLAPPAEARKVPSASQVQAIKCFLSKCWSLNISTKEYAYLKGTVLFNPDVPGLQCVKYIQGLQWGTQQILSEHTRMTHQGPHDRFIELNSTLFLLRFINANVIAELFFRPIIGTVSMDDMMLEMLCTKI

Compound	CRY1 protein content [1]	colony formation in soft agar [2]	covalent modification of C274 of NR0B1 [3]
O=C(c1ccc(N2CCOCC2)cc1)N1CCC(CN(C(=O)CCl)c2cncnc2)CC1 [BPK-9, 2-chloro-N-((1-(4-morpholinobenzoyl)piperidin-4-yl)methyl)-N-(pyrimidin-5-yl)acetamide]	not observed	much less of an effect	
O=C(c1ccc(N2CCOCC2)cc1)N1CCCC(N(Cc2ccccc2)C(=O)CCl)CC1 (stereo not drawn) [BPK-29, N-benzyl-2-chloro-N-(1-(4-morpholinobenzoyl)azepan-4-yl)acetamide]	reduces CRY1 protein content; also recorded: substantial reduction in CRY1 protein content	blocked colony formation	covalently modified C274 of NR0B1
O=C(CCl)N(Cc1cccc(Cl)c1F)c1ccc(Cl)nc1 [BPK-26, 2-chloro-N-(3-chloro-2-fluorobenzyl)-N-(6-chloropyridin-3-yl)acetamide]			covalently modified C274 of NR0B1

— patent US20200278355A1, “CONJUGATED PROTEINS AND USES THEREOF” (THE SCRIPPS RESEARCH INSTITUTE, priority 2017, published 2020)
